From patent publication US20100028366A1, “SYNERGISTIC EFFECT BETWEEN A […] AND ANOTHER OXIDATIVE INDUCING SYSTEM FOR TREATING TUMORS” (priority 2005, published 2010) come the findings set out here.

Peptide text beside a SMILES is read from it. * marks the point of attachment. Cbz = O=C(OCc1ccccc1)*; CH2F = FC*

Holding throughout (type): cell-based, canine
Assay [1] concerns W&Wlis cells. Briefly: Analysis of the type of death by flow cytometry (annexin V-FITC/propidium iodide). Further details: Necrosis / Apoptosis: unit not given here. As for the experimental part: The annexin V-FITC and propidium iodide assay was performed in parallel by flow cytometry. The pattern of death of the system was analyzed when adding 5 mEU/ml of glucose oxidase and the combined therapy (5 mEU/ml of GO and 500 μg/ml of linamarin) at 48 hours, followed by the control of untreated cells and of the cells incubated with 500 μg/ml of linamarin at 96 hours. Furthermore, another group of cells was subjected to the same conditions except 10 mM of N-acetyl cysteine (NAC) were added. The cells treated with the combined therapy were subsequently studied at 48 hours in the absence and presence of 100 μM of Z-VAD-fmk, followed by the control of treatment of the cells with UV in the same conditions. Finally, the cells treated with the combined therapy were shown at 48 hours in the absence and presence of 300 μM of 1,5-isoquinolinediol (DIQ), observing that the pattern of death is not modified when PARP-1 is inhibited (FIG. 4).
10^5 W&Wlis cells were seeded in test tubes with a screw-on cap and flat side (Nunc). After 24 hours, different amounts of linamarin (50, 200 or 500 μg/ml) and glucose oxidase (5 mEU/ml) were added in the specified cases. In the appropriate assays, the medium was supplemented with N-acetyl cysteine (10 mM), 1,5-isoquinolinediol (300 μM) or Z-VAD-fmk (100 μM). […] They were centrifuged for 5 minutes at 1200 rpm and the cell precipitate was washed first with PBS and then with binding buffer (0.1 M Hepes/NaOH pH 7.4, 1.4 M NaCl and 25 mM CaCl2). The cells were again precipitated and resuspended in 100 μl of binding buffer supplemented with 5 μl of annexin V-FITC and 2.5 μg/ml of propidium iodide. The samples were incubated for 15 minutes in the dark. Data acquisition and analysis was carried out by means of a FACSCalibur flow cytometer (DB Biosciences) with the Cell Quest program.
(In general: Flow cytometry measures light scatter and fluorescence of single cells or particles in a stream.)

Assay [2] has as its system W&Wlis cells. Briefly: DNA content analysis by flow cytometry, labeling with propidium iodide. The arrangement: unit not given here. Particulars: UV (24 hours), 12.5 J/m^2; Z-VAD-fmk 100 μM; UV Control = 66.14.
The test system of assay [3] is W&Wlis cells. Briefly: Analysis of the type of death by flow cytometry (annexin V-FITC/propidium iodide). The arrangement: unit not given here. The conditions noted are these: Table 5; Control cells; DIQ (300 μM); 32 hours.
The mark [4] stands for this setting: Table 4, 0 μg lin, Without GO, 72 hours, Z-VAD-fmk (100 μM).
[5] abbreviates: Table 5, Control cells, DIQ (300 μM), 48 hours.
Where [6] appears, read: 0 μg lin, Without GO, 96 hours, NAC (10 mM).

In the assay on W&Wlis cells [1] (setting [4]), `COC(=O)C[C@H](NC(=O)[C@H](C)NC(=O)[C@@H](NC(=O)OCc1ccccc1)C(C)C)C(=O)CF` [Z-VAD-fmk, reference compound] (Cbz-Val-Ala-Asp(OMe)-CH2F) gave an Apoptosis of 2.66 and a Necrosis of 37.25. The “inhibition of UV radiation-induced apoptosis” value in the assay on W&Wlis cells [1] (Z-VAD-fmk (100 μM), UV 12.5 J/m^2, DNA content and annexin V-FITC/propidium iodide) was “complete inhibition”. In addition, the “DNA content by flow cytometry, labeling with propidium iodide” value in the assay on W&Wlis cells [2] is recorded as “Z-VAD-fmk = 2.71”.
As to `Oc1cccc2c(O)nccc12` [DIQ, 1,5-isoquinolinediol, reference compound], the results for the Necrosis with W&Wlis cells [3] and in the assay on W&Wlis cells [1] (setting [5]) were 17.62 and 29.59, respectively. The Apoptosis in the assay on W&Wlis cells [1] (Table 5, Control cells, DIQ (300 μM), 32 hours) is 8.15; in the assay on W&Wlis cells [1] (setting [5]) it was 20.16.
In the assay with W&Wlis cells [1] (setting [6]), `CC(=O)N[C@@H](CS)C(=O)O` [NAC, N-acetyl cysteine, reference compound] had an Apoptosis of 16.17 and a Necrosis of 13.46.
